Reference: patent publication US6426229B1, “Chelating agent and detergent comprising the same” (Mitsubishi Rayon Co., Ltd., priority 1995, dated 2002)

Test: Compression strength (hardening property) of powder stored under load for 2 months
Format: physicochemical
Settings: Load 100 (table head [Kg]; text 100 g/cm^2); 20-30° C., relative humidity 40-70%
Method: Method for the Measurement of Compression Strength
(1) A test sample (500 g) is put in a poly-ethylene bag of 20 cm×20 cm in a room at a temperature of 20-30° C. and a relative humidity of 40-70%. The powder is levelled to an area of 20 cm×20 cm and air is forced out of the bag, and, then, the bag is sealed. This bag is further put in a kraft bag and this kraft bag is sealed.
(2) The kraft bag of (1) is placed horizontally on a flat plate and a plate is put thereon. […]
(3) With keeping the temperature of 20-30° C. and the relative humidity of 40-70%, the test sample is taken out after lapse of 2 months from the starting of application of load. Several test pieces (4 cm long×4 cm broad×2 cm high) are cut out from the sample.

Row | Structure (SMILES) | Compression strength after stored for 2 months [Kg/cm^2]
1 | O=C([O-])CC(NCCNC(CC(=O)[O-])C(=O)[O-])C(=O)[O-].[Na+].[Na+].[Na+].[Na+] (stereo not shown) [Example 51, tetrasodium ethylenediaminedisuccinate] | 1.2
2 | O=C([O-])C[C@H](NCCN[C@@H](CC(=O)[O-])C(=O)[O-])C(=O)[O-].[Na+].[Na+].[Na+].[Na+] [Example 52, tetrasodium (S,S)-ethylenediaminedisuccinate] | 1.0
3 | O=C([O-])CC(NCCCNC(CC(=O)[O-])C(=O)[O-])C(=O)[O-].[Na+].[Na+].[Na+].[Na+] (stereo not shown) [Example 53, tetrasodium 1,3-propanediaminedisuccinate] | 0.8
4 | O=C([O-])C[C@H](NCCCN[C@@H](CC(=O)[O-])C(=O)[O-])C(=O)[O-].[Na+].[Na+].[Na+].[Na+] [Example 54, tetrasodium (S,S)-1,3-propanediaminedisuccinate] | 0.9
5 | O=C([O-])C[C@H](NCC(O)CN[C@@H](CC(=O)[O-])C(=O)[O-])C(=O)[O-].[Na+].[Na+].[Na+].[Na+] [Example 55, tetrasodium (S,S)-2-hydroxy-1,3-propanediaminedisuccinate] | 1.2
6 | O=C(O)C[C@H](NCCN[C@@H](CC(=O)O)C(=O)O)C(=O)O [Example 66, ethylenediaminedisuccinic acid] | 0.8
7 | O=C(O)C[C@H](NCCN[C@@H](CC(=O)O)C(=O)O)C(=O)O [Example 67, (S,S)-ethylenediaminedisuccinic acid] | 1.1
8 | O=C(O)CC(NCCCNC(CC(=O)O)C(=O)O)C(=O)O (stereo not shown) [Example 68, 1,3-propanediaminedisuccinic acid] | 1.2
9 | O=C(O)C[C@H](NCCCN[C@@H](CC(=O)O)C(=O)O)C(=O)O [Example 69, (S,S)-1,3-propanediaminedisuccinic acid] | 1.0
10 | O=C(O)C[C@H](NCC(O)CN[C@@H](CC(=O)O)C(=O)O)C(=O)O [Example 70, (S,S)-2-hydroxy-1,3-propanediaminedisuccinic acid] | 0.8
11 | O=C([O-])CN[C@@H](CC(=O)[O-])C(=O)[O-].[Na+].[Na+].[Na+] [compound 1, trisodium salt of (S)-aspartic acid-N-monoacetic acid, reference compound] | 2.6
12 | O=C([O-])CCN[C@@H](CC(=O)[O-])C(=O)[O-].[Na+].[Na+].[Na+] [compound 2, trisodium salt of (S)-aspartic acid-N-monopropionic acid, reference compound] | 3.0
13 | O=C([O-])C[C@@H](C(=O)[O-])N(CC(=O)[O-])CC(=O)[O-].[Na+].[Na+].[Na+].[Na+] [compound 3, tetrasodium salt of (S)-aspartic acid-N,N-diacetic acid, reference compound] | 3.2

Same assay, conditions: Load 200 (table head [Kg]; text 200 g/cm^2); 20-30° C., relative humidity 40-70%

Row | Structure (SMILES) | Compression strength after stored for 2 months [Kg/cm^2]
14 | O=C([O-])CC(NCCCNC(CC(=O)[O-])C(=O)[O-])C(=O)[O-].[Na+].[Na+].[Na+].[Na+] (stereo not shown) [Example 48, tetrasodium 1,3-propanediaminedisuccinate] | 1.0
15 | O=C([O-])C[C@H](NCCCN[C@@H](CC(=O)[O-])C(=O)[O-])C(=O)[O-].[Na+].[Na+].[Na+].[Na+] [Example 49, tetrasodium (S,S)-1,3-propanediaminedisuccinate] | 1.3
16 | O=C([O-])C[C@H](NCC(O)CN[C@@H](CC(=O)[O-])C(=O)[O-])C(=O)[O-].[Na+].[Na+].[Na+].[Na+] [Example 50, tetrasodium (S,S)-2-hydroxy-1,3-propanediaminedisuccinate] | 1.2
17 | O=C(O)C[C@H](NCCN[C@@H](CC(=O)O)C(=O)O)C(=O)O [Example 61, ethylenediaminedisuccinic acid] | 0.9
18 | O=C(O)C[C@H](NCCN[C@@H](CC(=O)O)C(=O)O)C(=O)O [Example 62, (S,S)-ethylenediaminedisuccinic acid] | 1.0
19 | O=C(O)CC(NCCCNC(CC(=O)O)C(=O)O)C(=O)O (stereo not shown) [Example 63, 1,3-propanediaminedisuccinic acid] | 1.1
20 | O=C(O)C[C@H](NCCCN[C@@H](CC(=O)O)C(=O)O)C(=O)O [Example 64, (S,S)-1,3-propanediaminedisuccinic acid] | 0.9
21 | O=C(O)C[C@H](NCC(O)CN[C@@H](CC(=O)O)C(=O)O)C(=O)O [Example 65, (S,S)-2-hydroxy-1,3-propanediaminedisuccinic acid] | 1.0
22 | O=C([O-])CC(NCCNC(CC(=O)[O-])C(=O)[O-])C(=O)[O-].[Fe+3].[NH4+] (stereo not shown) [Example 76, iron ammonium ethylenediaminedisuccinate] | 1.1
23 | O=C([O-])CC(NCCNC(CC(=O)[O-])C(=O)[O-])C(=O)[O-].[Cu+2].[Na+].[Na+] (stereo not shown) [Example 77, copper disodium ethylenediaminedisuccinate] | 1.2
24 | O=C([O-])CC(NCCNC(CC(=O)[O-])C(=O)[O-])C(=O)[O-].[Na+].[Na+].[Ni+2] (stereo not shown) [Example 78, nickel disodium ethylenediaminedisuccinate] | 1.0
25 | O=C([O-])C[C@H](NCCN[C@@H](CC(=O)[O-])C(=O)[O-])C(=O)[O-].[Fe+3].[NH4+] [Example 79, iron ammonium (S,S)-ethylenediaminedisuccinate] | 0.9
26 | O=C([O-])C[C@H](NCCN[C@@H](CC(=O)[O-])C(=O)[O-])C(=O)[O-].[Cu+2].[Na+].[Na+] [Example 80, copper disodium (S,S)-ethylenediaminedisuccinate] | 1.0
27 | O=C([O-])C[C@H](NCCN[C@@H](CC(=O)[O-])C(=O)[O-])C(=O)[O-].[Na+].[Na+].[Ni+2] [Example 81, nickel disodium (S,S)-ethylenediaminedisuccinate] | 1.2
28 | O=C([O-])C[C@H](NCCCN[C@@H](CC(=O)[O-])C(=O)[O-])C(=O)[O-].[Fe+3].[NH4+] [Example 82, iron ammonium (S,S)-1,3-propanediaminedisuccinate] | 1.1
29 | O=C([O-])C[C@H](NCCCN[C@@H](CC(=O)[O-])C(=O)[O-])C(=O)[O-].[Cu+2].[Na+].[Na+] [Example 83, copper disodium (S,S)-1,3-propanediaminedisuccinate] | 1.3
30 | O=C([O-])CC(NCCCNC(CC(=O)[O-])C(=O)[O-])C(=O)[O-].[Na+].[Na+].[Ni+2] [Example 84, nickel disodium (S,S)-1,3-propanediaminedisuccinate] | 1.0

Same assay, conditions: Load 300 (table head [Kg]; text 300 g/cm^2); 20-30° C., relative humidity 40-70%

Row | Structure (SMILES) | Compression strength after stored for 2 months [Kg/cm^2]
31 | O=C([O-])CC(NCCNC(CC(=O)[O-])C(=O)[O-])C(=O)[O-].[Na+].[Na+].[Na+].[Na+] (stereo not shown) [Example 56, tetrasodium ethylenediaminedisuccinate] | 0.8
32 | O=C([O-])C[C@H](NCCN[C@@H](CC(=O)[O-])C(=O)[O-])C(=O)[O-].[Na+].[Na+].[Na+].[Na+] [Example 57, tetrasodium (S,S)-ethylenediaminedisuccinate] | 0.9
33 | O=C([O-])CC(NCCCNC(CC(=O)[O-])C(=O)[O-])C(=O)[O-].[Na+].[Na+].[Na+].[Na+] (stereo not shown) [Example 58, tetrasodium 1,3-propanediaminedisuccinate] | 1.0
34 | O=C([O-])C[C@H](NCCCN[C@@H](CC(=O)[O-])C(=O)[O-])C(=O)[O-].[Na+].[Na+].[Na+].[Na+] [Example 59, tetrasodium (S,S)-1,3-propanediaminedisuccinate] | 1.1
35 | O=C([O-])C[C@H](NCC(O)CN[C@@H](CC(=O)[O-])C(=O)[O-])C(=O)[O-].[Na+].[Na+].[Na+].[Na+] [Example 60, tetrasodium (S,S)-2-hydroxy-1,3-propanediaminedisuccinate] | 1.2
36 | O=C(O)C[C@H](NCCN[C@@H](CC(=O)O)C(=O)O)C(=O)O [Example 71, ethylenediaminedisuccinic acid] | 1.2
37 | O=C(O)C[C@H](NCCN[C@@H](CC(=O)O)C(=O)O)C(=O)O [Example 72, (S,S)-ethylenediaminedisuccinic acid] | 1.3
38 | O=C(O)CC(NCCCNC(CC(=O)O)C(=O)O)C(=O)O (stereo not shown) [Example 73, 1,3-propanediaminedisuccinic acid] | 1.1
39 | O=C(O)C[C@H](NCCCN[C@@H](CC(=O)O)C(=O)O)C(=O)O [Example 74, (S,S)-1,3-propanediaminedisuccinic acid] | 1.2
40 | O=C(O)C[C@H](NCC(O)CN[C@@H](CC(=O)O)C(=O)O)C(=O)O [Example 75, (S,S)-2-hydroxy-1,3-propanediaminedisuccinic acid] | 1.0
